Data reported in patent publication US8030478B2, “Method for nucleic acid replication and novel artificial base pairs” (priority 2005, dated 2011).
Like-named read-outs stand apart in the source and are kept apart here.

Target: T1, Klenow fragment lacking exonuclease activity (KF exo−) (Escherichia coli, UniProt P00582, D355A/E357A)
T1 construct: enzyme solution of the Klenow fragment lacking exonuclease activity (KF exo^−, Amersham USB); purchased Amersham USB
Type: biochemical, E. coli
Conditions: 37° C.
Protocol: The single nucleotide insertion experiment was performed as described in documents (Non-patent Documents 30-32). A primer (20-mer) labeled with 6-carboxylfluorescein at the 5′-end was annealed with template DNA (35-mer) by heating at 95° C. and slow cooling to 4° C. in 100 mM Tris-HCl (pH 7.5) buffer containing 20 mM MgCl2, 2 mM DTT and 0.1 mg/ml bovine serum albumin. The primer-template duplex solution (10 μM, 5 μl) was mixed with 2 μl enzyme solution of the Klenow fragment lacking exonuclease activity (KF exo^−, Amersham USB). After the mixture was incubated for 2 minutes, each dNTP solution (3 μl) was added to this solution to start the reaction at 37° C. The amount of the enzyme used (5-50 nM), the reaction time (1-35 minutes) and the gradient concentration of each dNTP (0.3-1500 μM) were adjusted to ensure conditions giving 25% or less products. The reaction was stopped with 10 μl stop solution (95% formamide and 20 mM EDTA), and the mixture was immediately heated at 75° C. for 3 minutes. The diluted products were analyzed in an automated ABI377 DNA sequencer equipped with GeneScan software (version 3.0) (Non-patent Document 32). The relative velocity (v0) was calculated by dividing the extent of reaction by the reaction time, and then normalized to the enzyme concentration (20 nM) for the various enzyme concentrations used. Kinetic parameters (KM and Vmax) were obtained from Hanes-Woolf plots of [dNTP]/v0 against [dNTP].
Each parameter was averaged from 3 to 8 data sets.

T1 sequence (P00582 324-928 D355A/E357A): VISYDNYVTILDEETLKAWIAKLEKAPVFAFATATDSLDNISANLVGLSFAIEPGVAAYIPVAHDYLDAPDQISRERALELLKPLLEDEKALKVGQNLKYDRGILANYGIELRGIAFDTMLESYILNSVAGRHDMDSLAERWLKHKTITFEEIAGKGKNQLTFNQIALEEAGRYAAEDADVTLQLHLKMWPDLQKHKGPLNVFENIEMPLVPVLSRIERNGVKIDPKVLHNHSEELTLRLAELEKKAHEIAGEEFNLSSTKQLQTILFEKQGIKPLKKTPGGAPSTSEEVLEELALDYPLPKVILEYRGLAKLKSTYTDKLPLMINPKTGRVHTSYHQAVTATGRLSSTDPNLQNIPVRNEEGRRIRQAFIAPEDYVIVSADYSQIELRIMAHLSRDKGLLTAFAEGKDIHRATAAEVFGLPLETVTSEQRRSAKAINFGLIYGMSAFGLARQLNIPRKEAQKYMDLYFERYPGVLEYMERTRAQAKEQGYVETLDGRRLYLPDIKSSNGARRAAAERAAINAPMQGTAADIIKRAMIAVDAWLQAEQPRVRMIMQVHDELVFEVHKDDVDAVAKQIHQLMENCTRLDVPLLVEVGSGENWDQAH

With dATP [reference compound] the “Efficiency (Vmax/KM)” value (template (N) = C, temp35N-2) was 4.6 × 10^3 % min^−1M^−1, the Km (template (N) = C, temp35N-2) was 500 µM and the Vmax (template (N) = C, temp35N-2) was 2.3 % min^−1. The “Efficiency (Vmax/KM)” value (template (N) = Ds, temp35N-1) was 2.4 × 10^3 % min^−1M^−1, the Km (template (N) = Ds, temp35N-1) was 150 µM and the Vmax (template (N) = Ds, temp35N-1) was 0.36 % min^−1. The “Efficiency (Vmax/KM)” value (template (N) = Pa, temp35N-2) was 4.3 × 10^4 % min^−1M^−1, the Km (template (N) = Pa, temp35N-2) was 490 µM and the Vmax (template (N) = Pa, temp35N-2) was 21 % min^−1. The “Efficiency (Vmax/KM)” value (template (N) = Pa′, temp35N-2) was 3.7 × 10^4 % min^−1M^−1, the Km (template (N) = Pa′, temp35N-2) was 570 µM and the Vmax (template (N) = Pa′, temp35N-2) was 21 % min^−1. The “Efficiency (Vmax/KM)” value (template (N) = T, temp35N-2) was 4.1 × 10^6 % min^−1M^−1, the Km (template (N) = T, temp35N-2) was 0.81 µM and the Vmax (template (N) = T, temp35N-2) was 3.3 % min^−1.
